Results: patent publication US20100099670A1, “Benzoquinazoline derivatives” (priority 2007, published 2010)

biological target: T1, human PcaR (Homo sapiens, UniProt P41180); experiment: Inhibition of intracellular calcium transients stimulated by extracellular calcium (assay for intracellular free calcium); type: cell-based; settings: CCL39 fibroblasts stably transfected with human PcaR; Fluo-3 AM; stimulated with calcium 2.5 mM final; read-out: IC50 (nm) (range in which compound fall)
T1 construct: expressed in transfected cells; host or cells: CCL39 fibroblasts (hamster lung fibroblast line), stably transfected
T1 sequence (P41180 20-1078): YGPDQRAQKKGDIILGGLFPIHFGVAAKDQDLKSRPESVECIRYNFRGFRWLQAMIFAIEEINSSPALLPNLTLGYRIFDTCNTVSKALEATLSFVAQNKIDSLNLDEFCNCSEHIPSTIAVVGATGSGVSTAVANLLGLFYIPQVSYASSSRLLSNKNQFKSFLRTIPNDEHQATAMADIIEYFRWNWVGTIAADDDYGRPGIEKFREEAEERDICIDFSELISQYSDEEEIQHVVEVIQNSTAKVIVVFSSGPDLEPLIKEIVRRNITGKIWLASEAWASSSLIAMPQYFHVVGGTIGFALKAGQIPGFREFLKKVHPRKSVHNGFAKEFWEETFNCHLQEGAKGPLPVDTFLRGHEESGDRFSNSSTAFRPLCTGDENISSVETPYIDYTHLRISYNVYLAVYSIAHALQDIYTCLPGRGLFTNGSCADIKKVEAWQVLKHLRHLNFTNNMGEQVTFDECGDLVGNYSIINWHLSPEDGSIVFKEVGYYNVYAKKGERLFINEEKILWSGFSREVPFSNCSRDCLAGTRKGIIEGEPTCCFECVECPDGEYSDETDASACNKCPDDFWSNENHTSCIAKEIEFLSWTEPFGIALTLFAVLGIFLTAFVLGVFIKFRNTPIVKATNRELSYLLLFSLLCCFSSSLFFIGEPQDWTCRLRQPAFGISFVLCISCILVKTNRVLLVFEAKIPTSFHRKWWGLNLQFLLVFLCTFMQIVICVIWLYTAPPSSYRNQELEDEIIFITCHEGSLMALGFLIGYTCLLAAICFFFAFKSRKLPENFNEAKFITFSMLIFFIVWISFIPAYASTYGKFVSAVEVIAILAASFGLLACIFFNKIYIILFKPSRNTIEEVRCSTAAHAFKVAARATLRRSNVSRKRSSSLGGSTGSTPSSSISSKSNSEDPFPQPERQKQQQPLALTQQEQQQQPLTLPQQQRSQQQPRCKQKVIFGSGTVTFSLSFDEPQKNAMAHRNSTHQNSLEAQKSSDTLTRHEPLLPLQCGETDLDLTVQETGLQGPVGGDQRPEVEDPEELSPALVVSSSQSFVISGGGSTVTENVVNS
Procedure: Inhibition of Intracellular Calcium Transients Stimulated by Extracellular Calcium
In the test system, which is described in detail below, the following ranges of IC50 values are found:
Assay for Intracellular Free Calcium:
A method to determine antagonism at the PcaR consists in measuring the inhibition of intracellular calcium transients stimulated by extracellular calcium.
CCL39 fibroblasts stably transfected with human PcaR are seeded at 40,000 cells/well into 96-well Viewplates and incubated for 24 hours. Medium is then removed and replaced with fresh medium containing 2 μM Fluo-3 AM (Molecular Probes, Leiden, The Netherlands), In routine experiments, cells are incubated at 37° C., 5% CO2 for 1 h. Afterwards, plates are washed twice with mHBS and wells are refilled with 100 μl mHBS containing the test compounds. Incubation is continued at room temperature for 15 minutes. To record changes of intracellular free calcium, plates are transferred to fluorescence-imaging plate reader (Molecular Devices, Sunnyvale, Calif., USA). A baseline consisting in 5 measurements of 0.4 seconds each (laser excitation 488 nm) is recorded. Cells are then stimulated with calcium (2.5 mM final), and fluorescence changes recorded over a period of 3 minutes.

Row | Compound | IC50 [nM]
1 | C#CCOc1ccc2nc(C(=O)c3ccc4c(c3)CCO4)nc(-c3ccc(C(C)C)cc3)c2c1 [Example 3, (2,3-Dihydro-benzofuran-5-yl)-[4-(4-isopropyl-phenyl)-6-propargyloxy-quinazolin-2-yl]-methanone] | 0.2 to 0.5
2 | C#CCOc1ccc2nc(C(=O)c3ccc4c(c3)OCCN4C)nc(-c3ccc(C(C)C)cc3)c2c1 [Example 7, [4-(4-Isopropyl-phenyl)-6-propargyloxy-quinazolin-2-yl]-(4-methyl-3,4-dihydro-2H-benzo[1,4]oxazin-7-yl)-methanone] | 0.2 to 0.5
3 | C#CCOc1ccc2nc(C(=O)c3ccc4c(c3)OC=CO4)nc(-c3ccc(C(C)C)cc3)c2c1 [Example 4, Benzo[1,4]dioxin-6-yl-[4-(4-isopropyl-phenyl)-6-propargyloxy-quinazolin-2-yl]-methanone] | 0.5 to 1
4 | C#CCOc1ccc2nc(C(=O)c3ccc4c(c3)OCO4)nc(-c3ccc(C(C)C)cc3)c2c1 [Example 2, Benzo[1,3]dioxol-5-yl-[4-(4-isopropyl-phenyl)-6-propargyloxy-quinazolin-2-yl]-methanone] | 0.2 to 0.5
5 | C#CCOc1ccc2nc(C(=O)c3ccc4c(c3)CCC4)nc(-c3ccc(C(C)C)cc3)c2c1 [Example 5, Indan-5-yl-[4-(4-isopropyl-phenyl)-6-propargyloxy-quinazolin-2-yl]-methanone] | 0.5 to 1
6 | C#CCOc1ccc2nc(C(=O)c3ccc4occc4c3)nc(-c3ccc(C(C)C)cc3)c2c1 [Example 8, Benzofuran-5-yl-[4-(4-isopropyl-phenyl)-6-propargyloxy-quinazolin-2-yl]-methanone] | 0.2 to 0.5
7 | C#CCOc1ccc2nc(C(=O)c3nc4ccc(OC)cc4s3)nc(-c3ccc(C(C)C)cc3)c2c1 [Example 11, [4-(4-Isopropyl-phenyl)-6-propargyloxy-quinazolin-2-yl]-(6-methoxy-benzo-thiazol-2-yl)-methanone] | 5 to 10
8 | C#CCOc1ccc2nc(C(=O)c3ccc4c(c3)C(C)(C)CCC4(C)C)nc(-c3ccc(C(C)C)cc3)c2c1 [Example 9, [4-(4-Isopropyl-phenyl)-6-propargyloxy-quinazolin-2-yl]-(5,5,8,8-tetramethyl-5,6,7,8-tetrahydro-naphthalen-2-yl)-methanone] | 1 to 5
9 | C#CCOc1ccc2nc(C(=O)c3ccc4c(c3)-c3ccccc3C4=O)nc(-c3ccc(C(C)C)cc3)c2c1 [Example 12, 3-[4-(4-Isopropyl-phenyl)-6-propargyloxy-quinazolin-2-carbonyl]-fluoren-9-one] | 0.2 to 0.5
10 | C#CCOc1ccc2nc(C(=O)c3ccc4c(c3)N(C)CCO4)nc(-c3ccc(C(C)C)cc3)c2c1 [Example 10, [4-(4-Isopropyl-phenyl)-6-propargyloxy-quinazolin-2-yl]-(4-methyl-3,4-dihydro-2H-benzo[1,4]oxazin-6-yl)-methanone] | 1 to 5
11 | C#CCOc1ccc2nc(C(=O)c3ccc4c(c3)OCC4)nc(-c3ccc(C(C)C)cc3)c2c1 [Example 6, (2,3-Dihydro-benzofuran-6-yl)-[4-(4-isopropyl-phenyl)-6-propargyloxy-quinazolin-2-yl]-methanone] | 0.2 to 0.5
12 | C#CCOc1ccc2nc(C(=O)c3ccc4c(c3)OCCO4)nc(-c3ccc(C(C)C)cc3)c2c1 [Example 1, (2,3-Dihydro-benzo[1,4]dioxin-6-yl)-[4-(4-isopropyl-phenyl)-6-propargyloxy-quinazolin-2-yl]-methanone] | 0.5 to 1
